Results reported in ChEMBL document CHEMBL4028815, “Novel phosphonate analogs of sulforaphane: Synthesis, in vitro and in vivo anticancer activity” (Eur J Med Chem, 2017).
Calls of active or inactive are those of the source. The rule behind the calls is not given here.

Legend:
LoVo/DX [1] = assay: Cell cycle arrest in human LoVo/DX cells assessed as decrease in accumulation at G0/G1 phase at 15 uM after 24 hrs by propidium iodide staining based flow cytometric method; format: functional
Mus musculus [2] = assay: Toxicity in BALB/c mdb mouse implanted with mouse 4T1 cells assessed as serum urea level at 100 umol/kg, ip administered five times weekly measured at 29 day post cell innoculum (reference value: 3.8 +/- […]); format: organism-based; conditions: in vivo, 696 h
HL60/MX2 = assay: Cytotoxicity against human HL60/MX2 cells after 72 hrs by sulforhodamine B assay; format: functional, cell-based; conditions: HL60/MX2, 72 h
LoVo/DX [3] = assay: Induction of apoptosis in human LoVo/DX cells assessed as increase in caspase3/7 activity at >15 uM using Ac-DEVD-ACC as substrate pretreated for 24 hrs followed by substrate addition measured for 2 hrs by fluorescence assay; format: functional, cell-based
LoVo [4] = assay: Potency index, ratio of sulforaphane IC50 to compound IC50 for human LoVo cells; format: functional
LoVo [5] = assay: Induction of apoptosis in human LoVo cells assessed as increase in caspase3/7 activity at >15 uM using Ac-DEVD-ACC as substrate pretreated for 24 hrs followed by substrate addition measured for 2 hrs by fluorescence assay; format: functional, cell-based
Mus musculus [6] = assay: Toxicity in BALB/c mdb mouse implanted with mouse 4T1 cells assessed as serum creatinine level at 100 umol/kg, ip administered five times weekly measured at 29 day post cell innoculum (reference value: 9.3 +/- 1.2 umol/L); format: organism-based; conditions: in vivo, 696 h
[7] = Induction of apoptosis in human LoVo/DX cells assessed as late apoptotic cells at 15 uM after 24 hrs by APC-Annexin-V/propidium iodide staining based flow cytometric method relative to control; format: functional
Mus musculus [8] = assay: Toxicity in BALB/c mdb mouse implanted with mouse 4T1 cells assessed as lung weight at 100 umol/kg, ip administered five times weekly measured at 29 day post cell innoculum (reference value: 0.2 +/- 0.018 g); format: organism-based; conditions: in vivo, 696 h

O=P(CCCCCCN=C=S)(Oc1ccccc1)Oc1ccccc1
Activity (LoVo/DX [1]): Active
Activity (Mus musculus [2]): 4.9 mmol/L
IC50 (HL60/MX2): 3.3 µM
Activity (LoVo/DX [3]): inactive
Ratio IC50 (LoVo [4]): 10
Activity (LoVo [5]): inactive
Activity (Mus musculus [6]): 8.4 µmol/L
Activity [7]: 59.7%
Activity (Mus musculus [8]): 0.294 g
